Reference: patent publication US20260001928A1 (CORTERIA PHARMACEUTICALS, priority 2022, published 2026)
*1 amine or outer side, *2 acyl side, *3 side chain or, on linkers, in order; H or OH if unused. Where a SMILES comes first, the peptide text is derived from it. Side-chain parts run from the residue outwards. [ ]: non-standard residue; d: D form. The star is where a group is joined. C16 diacid = O=C(O)CCCCCCCCCCCCCCC(=O)*; γGlu = O=C(O)[C@H](CCC(=O)[*:2])N[*:1]; αMeL = CC(C)C[C@](C)(N)C(=O)O

Experiments:
human CRF2a receptor = molecular target: T1, human CRF2a receptor (Homo sapiens, UniProt Q13324); assay: Activity at human CRF2a receptor, cAMP functional assay in TeloHEAC cells; format: cell-based; details: TeloHEAC cells stably expressing human CRF2a receptor, relative to urocortin 2 (100 nM = 100%)
T1 construct: expressed in transfected cells; host or cells: TeloHEAC cells
T1 sequence (Q13324 1-411): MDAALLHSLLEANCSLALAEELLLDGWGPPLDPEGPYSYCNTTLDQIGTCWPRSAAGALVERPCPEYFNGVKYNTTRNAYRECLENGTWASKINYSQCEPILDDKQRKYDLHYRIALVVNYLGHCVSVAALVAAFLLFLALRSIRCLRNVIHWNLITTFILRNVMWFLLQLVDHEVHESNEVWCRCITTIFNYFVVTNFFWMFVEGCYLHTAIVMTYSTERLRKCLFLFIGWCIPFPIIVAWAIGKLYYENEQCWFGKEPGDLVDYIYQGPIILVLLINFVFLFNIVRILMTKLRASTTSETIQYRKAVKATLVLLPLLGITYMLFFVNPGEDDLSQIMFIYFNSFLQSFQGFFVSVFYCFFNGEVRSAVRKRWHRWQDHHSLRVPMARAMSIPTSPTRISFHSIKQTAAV
In short: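 TeloHEAC cells stably expressing human CRF2a (10000 cells/well, suspended in HBSS/20 mM HEPES with 2 mM IBMX) were exposed to compounds for 30 min at 37 °C. cAMP was read as the 665/620 nm fluorescence ratio after 1 h at room temperature. EC50 was derived relative to 100 nM urocortin 2, set as 100%.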

CFR1R receptor = molecular target: T2, CFR1R receptor (Homo sapiens, UniProt P34998); assay: Activity at anti-target CFR1R receptor, cAMP assay in CRF1R-overexpression CHO-K1 cells; format: cell-based; details: 100% = Sauvagine at 100 nM; for EC50: cAMP
T2 construct: host or cells: CHO-K1 (clone 2)
T2 sequence (P34998 24-415): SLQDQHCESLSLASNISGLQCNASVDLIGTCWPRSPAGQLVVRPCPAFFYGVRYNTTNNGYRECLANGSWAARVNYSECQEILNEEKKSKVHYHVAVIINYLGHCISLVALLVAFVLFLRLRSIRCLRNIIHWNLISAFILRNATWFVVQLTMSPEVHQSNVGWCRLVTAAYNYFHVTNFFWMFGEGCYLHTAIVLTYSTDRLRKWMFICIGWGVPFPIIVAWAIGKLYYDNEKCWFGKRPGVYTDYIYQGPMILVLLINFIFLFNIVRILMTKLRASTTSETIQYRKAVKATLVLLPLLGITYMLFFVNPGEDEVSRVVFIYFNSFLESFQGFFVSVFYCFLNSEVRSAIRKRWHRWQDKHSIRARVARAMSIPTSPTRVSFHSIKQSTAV
In short: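 Uses frozen stocks of CHO-K1 clone 2 cells overexpressing human CRF1R, plated at 4000 cells/well final, with cAMP measured by the same protocol as the TeloHAEC line. Full-activation control: 100 nM Sauvagine.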

Row | EC50 (human CRF2a receptor) [nM] | Emax (% I) (CFR1R receptor) | EC50 (CFR1R receptor) [nM] | SMILES
1 | 0.92 | −3 | > 250 | CC[C@H](C)[C@H](NC(C)=O)C(=O)N[C@H](C(=O)N[C@@H](CC(C)C)C(=O)N[C@@H](CO)C(=O)N[C@@H](CC(C)C)C(=O)N[C@@H](CC(=O)O)C(=O)N[C@H](C(=O)N1CCC[C@H]1C(=O)N[C@H](C(=O)N[C@@H](CCCCN)C(=O)N[C@@](C)(CC(C)C)C(=O)N[C@@H](CCCCNC(=O)CC[C@H](NC(=O)CCCCCCCCCCCCCCC(=O)O)C(=O)O)C(=O)N[C@@H](CCCCN)C(=O)N[C@H](C(=O)N[C@@H](CC(C)C)C(=O)N[C@@H](CC(C)C)C(=O)N[C@@H](CCC(=O)O)C(=O)N[C@@H](CCC(N)=O)C(=O)N[C@@H](CCC(=O)O)C(=O)N[C@@H](CCCCN)C(=O)N[C@@H](CCC(N)=O)C(=O)N[C@@H](CCCCN)C(=O)N[C@@H](CCCCN)C(=O)N[C@@H](CCC(N)=O)C(=O)N[C@@H](CCCNC(=N)N)C(=O)N[C@@H](CCC(=O)O)C(=O)N[C@@H](CCC(N)=O)C(=O)N[C@@H](C)C(=O)N[C@@H](CCC(=O)O)C(=O)N[C@H](C(=O)N[C@@H](CC(N)=O)C(=O)N[C@H](C(=O)N[C@@H](CCC(N)=O)C(=O)N[C@H](C(=O)N[C@@H](CC(C)C)C(=O)N[C@@H](C)C(=O)N[C@@H](CCC(N)=O)C(=O)N[C@H](C(N)=O)C(C)C)[C@@H](C)CC)C(C)C)[C@@H](C)O)[C@@H](C)CC)[C@@H](C)CC)C(C)C)C(C)C [compound 49] (Ac-IVLSLDVPIK[αMeL]K([γGlu-C16 diacid])KILLEQEKQKKQREQAETNVQILAQV-NH2)
2 | 0.26 | 9 | > 250 | CC[C@H](C)[C@H](NC(C)=O)C(=O)N[C@H](C(=O)N[C@@H](CC(C)C)C(=O)N[C@@H](CO)C(=O)N[C@@H](CC(C)C)C(=O)N[C@@H](CC(=O)O)C(=O)N[C@@H](C(=O)N1CCC[C@H]1C(=O)N[C@H](C(=O)N[C@@H](CCCCN)C(=O)N[C@@](C)(CC(C)C)C(=O)N[C@@H](CCCCNC(=O)CC[C@H](NC(=O)CCCCCCCCCCCCCCC(=O)O)C(=O)O)C(=O)N[C@@H](CCCCN)C(=O)N[C@H](C(=O)N[C@@H](CC(C)C)C(=O)N[C@@H](CC(C)C)C(=O)N[C@@H](CCC(=O)O)C(=O)N[C@@H](CCC(N)=O)C(=O)N[C@@H](CCC(=O)O)C(=O)N[C@@H](CCCCN)C(=O)N[C@@H](CCC(N)=O)C(=O)N[C@@H](CCCCN)C(=O)N[C@@H](CCCCN)C(=O)N[C@@H](CCC(N)=O)C(=O)N[C@@H](CCCNC(=N)N)C(=O)N[C@@H](CCC(=O)O)C(=O)N[C@@H](CCC(N)=O)C(=O)N[C@@H](C)C(=O)N[C@@H](CCC(=O)O)C(=O)N[C@H](C(=O)N[C@@H](CC(N)=O)C(=O)N[C@H](C(=O)N[C@@H](CCC(N)=O)C(=O)N[C@H](C(=O)N[C@@H](CC(C)C)C(=O)N[C@@H](C)C(=O)N[C@@H](CCC(N)=O)C(=O)N[C@H](C(N)=O)C(C)C)[C@@H](C)CC)C(C)C)[C@@H](C)O)[C@@H](C)CC)[C@@H](C)CC)C(C)C)C(C)C [compound 50] (Ac-IVLSLD[dV]PIK[αMeL]K([γGlu-C16 diacid])KILLEQEKQKKQREQAETNVQILAQV-NH2)
